# Patent US10647680B2, “Urea compound, preparation method therefor and medical use thereof” (Ancureall Pharmaceutical (Shanghai) Co., Ltd., priority 2016, dated 2020)
# Columns and labels:
# [1] = tested on: MV4-11 cell Bab/c nude mouse tumor model; assay: In vivo tumor growth inhibition experiment; details: for tumor outcome: 15th day of administration; for effect on body weight of nude mice: compared with the solvent control group
# Description: Xenotransplantation in immunodeficient mice is an effective model for testing in vivo antitumor activity of compounds in animals. Bab/c immunodeficient mice are one of the most commonly used tumor cell xenografts. […] Log-phase MV4-11 cells were collected in a 50 ml of centrifuge tube (Corning), centrifuged at 1,700 rpm for 3 minutes, and the supernatant was discarded. Cells were suspended in a 50 ml 1×RPMI 1640 serum-free medium, and centrifuged, the supernatant was discarded and resuspension was performed. The cells were counted (Countess® Automated Cell Counting Apparatus, Invitrogen), prepared into […], placed on ice, and inoculated subcutaneously with 10×10^6 (0.2 ml) to the right back of 6-8-week female Bab/c nude mice (about 20 g in weight) (purchased from Shanghai Sippr-BK Experimental Animal Co., Ltd., Animal Center of Shanghai University of Traditional Chinese Medicine, approved by Ethical Committee of Shanghai University of Traditional Chinese Medicine). When the tumor grew to a size of 100-200 mm^3, animals were randomly grouped and earmarked and weighed. The treatment group consisted of 3 to 6 nude mice in each group. Drugs were prepared into different concentrations of milky suspension with a solvent PTP solution (30% polyethylene glycol 400, 0.5% Tween-80, 2.5% propylene glycol). Animals were given by oral gavage continuously at a concentration of 0.1 ml/10 g body weight, with a dose range of 0.1-200 mg/kg (the purity of the test compound of the present invention was 99% or more, and the proportion of single impurity was not more than 0.1%). In the control group, 3 to 6 nude mice in each group were given the same volume (0.1 ml/10 g body weight) of solvent PTP solution, and the tumors were measured 3 to 4 times per week. When the average tumor volume in the control group reached 1500 mm^3, or on the 28th day of administration, the experiment ended, then the tumor was weighed and subjected to molecular pathology assay.
# The tumor volume was calculated as V=½a×b^2, where a is the length and b is the width. The relative tumor volume (RTV) was calculated based on the measured results and the formula was RTV=Vt/V0, where V0 is the measured tumor volume when administered in divided cages (i.e., do), and Vt is the tumor volume at each measurement.
# NCI-H292 (EGFR WT) = assay: In vitro growth inhibition (GI50), NCI-H292; format: cell-based; details: Homo sapiens
# Text: Tumor cell line is an effective cell model for studying the inhibition of tumor cell growth or proliferation in vitro. In the present invention, a representative tumor cell line was selected to determine the cell growth inhibition activity of the present compound. All cell lines used were from ATCC, DSMZ, and the Cell Bank of the Chinese Academy of Sciences. Cell culture conditions and methods were in accordance with the requirements of each cell line. Cells were subcultured in vitro for no more than 3 passages each time, and as required, single-clone purification and identification of cell lines could be carried out.
# The cell culture media used were RPMI1640 (Gibco), MEM (Gibco), McCOY'S5A (Gibco), and IMDM (Gibco). The complete medium was prepared by supplement with 5˜20% fetal calf serum (Gibco), 1% double-antibiotics (10000 units/mL penicillin and 10000 units/mL), 2 mM glutamine or 1 mM sodium pyruvate, respectively.
# Human epidermal cancer cell line A431 (EGFR WT, amplification and high expression, from Shanghai Cell Bank of Chinese Academy of Sciences and ATCC), human lung cancer cell line NCI-H292 (EGFR WT, purchased from Shanghai Cell Bank of Chinese Academy of Sciences), NSCLC cell lines PC-9 and HCC827 (EGFR exon19 E746-A750 deletion, two cell lines are sensitive to the first-generation EGFR PTK inhibitor), NSCLC cell line NCI-H1975 (EGFR L858R/T790M and the first-generation EGFR inhibitor resistance, ATCC) were cultured with 1×RPMI1640 complete medium (supplement with 10% FBS), respectively.
# Adherent cells were digested with 0.25% pancreatin-EDTA (Gibco). The suspension cells were collected by centrifugation. The supernatant was discarded and the cell pellet was resuspended and counted. Different cell concentrations (5˜10×10^4 cells/mL) were prepared according to the growth cycle of each cell line and then seeded on a 96-well plate (Corning), 100 μL/well. The cells were incubated overnight at 37° C., 5% CO2. The compounds were added to the cells on the second day with 2 wells in parallel. The final concentration of organic solvent shall not exceed 1%. The cells were continually incubated for 3 to 5 days, and then subjected to MTT assay.
# The compound of the present invention and the control compound were dissolved in DMSO (Sigma) respectively, with the purity of more than 98%. The compound was stored in a concentration of 10 mM at −20° C. and diluted to 2- or 10-fold series prior to use.
# Dojindo CCK8 reagent kit was used as MTT assay. THERMO […] FC meter was used as microplate reader.
# For adherent cells, culture medium was removed and immediately replaced with the fresh prepared medium which contains 10% CCK8 reagent (100 μL/well). For the suspension cells, CCK8 was directly added to 10% of the final concentration. The cells were continually incubated for 1˜4 h. When a dark yellow color could be observed in the solvent control wells, the absorbance value at OD450 nm was measured and the cell growth rate was calculated according to the following formula: Cell Growth Rate (%)=100*(T−T0)/(C−T0) T=optical density of drug treatment cell well—optical density of blank control well; T0=optical density of cell well before drug treatment—optical density of blank control well; C=optical density of cell well of solvent control group—optical density of blank control well. The concentration value of 50% inhibition of cell growth (GI50) was calculated according to the drug concentration and cell growth rate curve. The experiment was independently repeated 1˜3 times, and subject to biological statistical analysis. 4. Experimental Results
# Tumor cell growth inhibition test was performed by selecting representative compounds (compounds 4, 11, 12, 16, 27, 68, 71, 77, 79, 89 and 116 of the present invention). The initial concentration of the compound was 5,000 nM, then it was serially diluted by 2-fold or 10-fold to 0.01 nM. The GI50 value of each test compound was calculated according to the GI50 assay and calculation method. […]
smiles,measurement,setting,value
"CC(C)(C)c1cc(NC(=O)Nc2ccc(-n3cnc4cc(OCCN5CCOCC5)ccc43)cc2)no1 [Compound 16, 1-(5-tert-butyl-isoxazol-3-yl)-3-{4-[5-(2-morpholin-4-yl-ethoxyl)-benzimidazol-1-yl]-phenyl}-urea]",Tumor Inhibition Rate (%),"[1]; Dose 2.5 mg/kg, Day 6",82.4%
same,Tumor Inhibition Rate (%),"[1]; Dose 2.5 mg/kg, Day 10",96.8%
same,Tumor Inhibition Rate (%),"[1]; Dose 2.5 mg/kg, Day 15",100%
same,Tumor Inhibition Rate (%),"[1]; Dose 2.5 mg/kg, Day 20",100%
same,tumor outcome,[1]; drug dose 2.5 mg/kg,tumor disappears completely
same,effect on body weight of nude mice,[1]; drug dose 2.5 mg/kg,no significant effect
same,GI50,NCI-H292 (EGFR WT),> 2500 nM
"CC(C)(C)c1cc(N)n(C(=O)Nc2ccc(-n3cnc4ccccc43)cc2)n1 [Compound 116, 5-amino-3-tert-butyl-pyrazol-1-carboxylic acid (4-benzimidazol-1-yl-phenyl)-amide]",GI50,NCI-H292 (EGFR WT),> 2500 nM
"CC(C)(C)c1cc(NC(=O)Nc2ccc(-n3cnc4cc(OCCO)ccc43)cc2)[nH]n1 [Compound 79, 1-(5-tert-butyl-2H-pyrazol-3-yl)-3-{4-[5-(2-hydroxy-ethoxyl)-benzimidazol-1-yl]-phenyl]urea]",GI50,NCI-H292 (EGFR WT),> 2500 nM
"CC(C)(C)c1cc(NC(=O)Nc2ccc(-n3cnc4cc(OCCN5CCOCC5)ccc43)cc2)[nH]n1 [Compound 89, 1-(5-tert-butyl-2H-pyrazol-3-yl)-3-{4-[5-(2-morpholin-4-yl-ethoxyl)-benzimidazol-1-yl]-phenyl}-urea]",Tumor Inhibition Rate (%),"[1]; Dose 2.5 mg/kg, Day 6",60.7%
same,Tumor Inhibition Rate (%),"[1]; Dose 2.5 mg/kg, Day 10",79.4%
same,Tumor Inhibition Rate (%),"[1]; Dose 2.5 mg/kg, Day 15",84.7%
same,Tumor Inhibition Rate (%),"[1]; Dose 2.5 mg/kg, Day 20",87.2%
same,GI50,NCI-H292 (EGFR WT),> 2500 nM
"COCCOc1ccc2c(c1)ncn2-c1ccc(NC(=O)Nc2cc(C(C)(C)C)n[nH]2)cc1 [Compound 77, 1-(5-tert-butyl-2H-pyrazol-3-yl)-3-{4-[5-(2-methoxyl-ethoxyl)-benzimidazol-1-yl]-phenyl}-urea]",Tumor Inhibition Rate (%),"[1]; Dose 2.5 mg/kg, Day 6",79.2%
same,Tumor Inhibition Rate (%),"[1]; Dose 2.5 mg/kg, Day 10",93.2%
same,Tumor Inhibition Rate (%),"[1]; Dose 2.5 mg/kg, Day 15",100%
same,Tumor Inhibition Rate (%),"[1]; Dose 2.5 mg/kg, Day 20",100%
same,tumor outcome,[1]; drug dose 2.5 mg/kg,tumor disappears completely
same,effect on body weight of nude mice,[1]; drug dose 2.5 mg/kg,no significant effect
same,GI50,NCI-H292 (EGFR WT),> 2500 nM
"COc1ccc2c(c1)ncn2-c1ccc(NC(=O)Nc2cc(C(C)(C)C)n[nH]2)cc1 [Compound 71, 1-(5-tert-butyl-2H-pyrazol-3-yl)-3-[4-(5-methoxyl-benzimidazol-1-yl)-phenyl]-urea]",Tumor Inhibition Rate (%),"[1]; Dose 0.5 mg/kg, Day 6",37.2%
same,Tumor Inhibition Rate (%),"[1]; Dose 0.5 mg/kg, Day 10",34.5%
same,Tumor Inhibition Rate (%),"[1]; Dose 0.5 mg/kg, Day 15",32.6%
same,Tumor Inhibition Rate (%),"[1]; Dose 0.5 mg/kg, Day 20",36.9%
same,Tumor Inhibition Rate (%),"[1]; Dose 0.5 mg/kg, Day 28",37.3%
same,Tumor Inhibition Rate (%),"[1]; Dose 1 mg/kg, Day 6",62.2%
same,Tumor Inhibition Rate (%),"[1]; Dose 1 mg/kg, Day 10",64.5%
same,Tumor Inhibition Rate (%),"[1]; Dose 1 mg/kg, Day 15",69.6%
same,Tumor Inhibition Rate (%),"[1]; Dose 1 mg/kg, Day 20",65.4%
same,Tumor Inhibition Rate (%),"[1]; Dose 1 mg/kg, Day 28",66.6%
same,Tumor Inhibition Rate (%),"[1]; Dose 2.5 mg/kg, Day 6",63.7%
same,Tumor Inhibition Rate (%),"[1]; Dose 2.5 mg/kg, Day 10",76.8%
same,Tumor Inhibition Rate (%),"[1]; Dose 2.5 mg/kg, Day 15",77.9%
same,Tumor Inhibition Rate (%),"[1]; Dose 2.5 mg/kg, Day 20",80.5%
same,Tumor Inhibition Rate (%),"[1]; Dose 2.5 mg/kg, Day 28",83.8%
same,Tumor Inhibition Rate (%),"[1]; Dose 5 mg/kg, Day 6",84.5%
same,Tumor Inhibition Rate (%),"[1]; Dose 5 mg/kg, Day 10",94.3%
same,Tumor Inhibition Rate (%),"[1]; Dose 5 mg/kg, Day 15",98.8%
same,Tumor Inhibition Rate (%),"[1]; Dose 5 mg/kg, Day 20",100.0%
same,Tumor Inhibition Rate (%),"[1]; Dose 5 mg/kg, Day 28",100%
same,Tumor Inhibition Rate (%),"[1]; Dose 10 mg/kg, Day 6",87.2%
same,Tumor Inhibition Rate (%),"[1]; Dose 10 mg/kg, Day 10",96.4%
same,Tumor Inhibition Rate (%),"[1]; Dose 10 mg/kg, Day 15",99.8%
same,Tumor Inhibition Rate (%),"[1]; Dose 10 mg/kg, Day 20",100%
same,Tumor Inhibition Rate (%),"[1]; Dose 10 mg/kg, Day 28",100%
same,Tumor Inhibition Rate (%),"[1]; Dose 25 mg/kg, Day 6",90.0%
same,Tumor Inhibition Rate (%),"[1]; Dose 25 mg/kg, Day 10",98.0%
same,Tumor Inhibition Rate (%),"[1]; Dose 25 mg/kg, Day 15",100.0%
same,Tumor Inhibition Rate (%),"[1]; Dose 25 mg/kg, Day 20",100.0%
same,Tumor Inhibition Rate (%),"[1]; Dose 25 mg/kg, Day 28",100%
same,Tumor Inhibition Rate (%),"[1]; Dose 50 mg/kg, Day 6",91.6%
same,Tumor Inhibition Rate (%),"[1]; Dose 50 mg/kg, Day 10",99.0%
same,Tumor Inhibition Rate (%),"[1]; Dose 50 mg/kg, Day 15",100.0%
same,Tumor Inhibition Rate (%),"[1]; Dose 200 mg/kg, Day 6",93.1%
same,Tumor Inhibition Rate (%),"[1]; Dose 200 mg/kg, Day 10",100.0%
same,Tumor Inhibition Rate (%),"[1]; Dose 200 mg/kg, Day 15",100.0%
same,tumor growth inhibitory activity compared with compound 68,[1]; MV4-11 xenograft,stronger tumor growth inhibitory activity
same,tumor growth inhibitory activity,"[1]; dose of 1 to 2.5 mg/kg, oral gavage",obvious tumor growth inhibitory activity
same,effect on body weight of nude mice,[1]; dose ≤25 mg/kg,no significant effect
same,GI50,NCI-H292 (EGFR WT),> 2500 nM
"CC(C)(C)c1cc(NC(=O)Nc2ccc(-n3cnc4ccc(OCCN5CCOCC5)cc43)cc2)no1 [Compound 27, 1-(5-tert-butyl-isoxazol-3-yl)-3-{4-[6-(2morpholin-4-yl-ethoxyl)-benzimidazol-1-yl]-phenyl}-urea]",GI50,NCI-H292 (EGFR WT),> 2500 nM
"CC(C)(C)c1cc(NC(=O)Nc2ccc(-n3cnc4cc(O)ccc43)cc2)no1 [Compound 4, 1-(5-tert-butyl-isoxazol-3-yl)-3-[4-(5-hydroxy-benzimidazol-1-yl)-phenyl]-urea]",GI50,NCI-H292 (EGFR WT),> 2500 nM
"CC(C)(C)c1cc(NC(=O)Nc2ccc(-n3cnc4cc(OCCO)ccc43)cc2)no1 [Compound 11, 1-(5-tert-butyl-isoxazol-3-yl)-3-{4-[5-(2-hydroxy-ethoxyl)-benzimidazol-1-yl]-phenyl]-urea]",GI50,NCI-H292 (EGFR WT),> 2500 nM
